The text below walks through data of EP1077981B1, “NOVEL CEPHALOSPORIN COMPOUNDS, PROCESSES FOR PREPARATION THEREOF AND ANTIMICROBIAL COMPOSITIONS CONTAINING THE SAME” (LG CHEMICAL LIMITED, priority 1998, dated 1999).

Structures are written as SMILES. ≈ marks a conversion by molar mass, not a printed value. Read-outs that look alike come from different tables or passages of the source.

One data set has as its system S. pneumoniae. As to the kind of experiment: MIC against standard strains (agar dilution). The settings on record: Streptococcus pneumoniae, Mueller-Hinton agar, 10^7 cfu/mℓ, 20 hours at 37°C. It counts as cell-based. The procedure:
(§1) Test example 1: Measurement of Minimum Inhibitory Concentration (MIC)
(§2) Specifically, test compounds were diluted by 2-fold dilution method and dispersed in Mueller-Hinton agar medium and then, 2µℓ of test strains were inoculated at a concentration of 10^7 cfu(colony forming unit)/mℓ on the medium and incubated for 20 hours at 37°C.

A further data set concerns S. aureus. As to the kind of experiment: MIC against standard strains (agar dilution). It counts as cell-based. The following applies: Staphylococcus aureus, Mueller-Hinton agar, 10^7 cfu/mℓ, 20 hours at 37°C. The procedure:
as §1, §2

The next data set has as its system E. coli. As to the kind of experiment: MIC against standard strains (agar dilution). Format: cell-based. The following applies: Escherichia coli, Mueller-Hinton agar, 10^7 cfu/mℓ, 20 hours at 37°C. The procedure:
as §1, §2

A further data set deals with P. vulgaris. As to the kind of experiment: MIC against standard strains (agar dilution). Format: cell-based. The following applies: Proteus vulgaris, Mueller-Hinton agar, 10^7 cfu/mℓ, 20 hours at 37°C. The procedure: as §1, §2
The test system of the next data set is H. influenzae. Nature of the data set: MIC against standard strains (agar dilution). Format: cell-based. The settings on record: Haemophilus influenzae. The procedure: as §1, §2
Data set [1] is described as follows: Pharmacokinetic experiment (blood concentration by HPLC). Format: in vivo, mice. The settings on record: mice, 20mg/kg; for AUC / half-life: male, mouse, blood. The procedure: Test example 2: Pharmacokinetic experiment
Male mice, each of which has a body weight of […] were used in the present pharmacokinetic experiment. Test compounds were formulated into 1% of solution and then, the solution was administered by oral route and by injection with a dose of 20mg/kg, respectively. At the fixed interval of time after administration, blood was gathered from the mice. Concentrations of test compounds in blood were measured by HPLC quantitative analysis and based on the results, pharmacokinetic parameters were calculated.

`C=CC1=C(C(=O)O)N2C(=O)[C@@H](NC(=O)/C(=N\O)c3csc(N)n3)[C@H]2SC1` [Cefdinir, reference compound]: the MIC was found to be 4 µg/mL (≈ 10.1 µM) in the data set with S. pneumoniae; 0.031 µg/mL (≈ 0.0784 µM) in the data set on S. aureus; 0.016 µg/mL (≈ 0.0405 µM) against E. coli; 0.031 µg/mL (≈ 0.0784 µM) in the data set with P. vulgaris; 0.25 µg/mL (≈ 0.632 µM) in the data set on H. influenzae (H. influenzae, Mueller-Hinton agar, 10^7 cfu/mℓ, 20 hours at 37°C, read-out: MIC). Besides, the AUC in data set [1] (intravenous, Injection) was 50000 ng·h/mL; in data set [1] (Oral administration), 6380 ng·h/mL. Further, the half-life in data set [1] (intravenous, Injection) turned out to be 0.35 h; in data set [1] (Oral administration) it was 1.23 h; in data set [1] (intravenous injection), 0.35 h. In addition, the maximum conc. in data set [1] (Oral administration) came out at 2.9 µg/mL.
Turning to `CO/N=C(\C(=O)NC1C(=O)N2C(C(=O)O)=C(SCSc3nccc(N)n3)CSC12)c1csc(N)n1` (stereo not shown) [Compound No. 2, 7-[(Z)-2-(2-amino-thiazol-4-yl)-2-methoxyimino-acetylamino]-8-oxo-3-(4-amino-pyrimidin-2-ylsulfanylmethylsulfanyl)-5-t hia-1-aza-bicyclo[4,2,0]oct-2-ene-2-carboxylic acid], the MIC in the data set on S. pneumoniae was determined as 0.25 µg/mL (≈ 0.451 µM); with S. aureus, 0.5 µg/mL (≈ 0.901 µM); in the data set with E. coli it was 0.063 µg/mL (≈ 0.114 µM); in the data set with P. vulgaris, 0.031 µg/mL (≈ 0.0559 µM); against H. influenzae (20 h), 0.008 µg/mL (≈ 0.0144 µM).
On the same counts, the results for `CO/N=C(\C(=O)NC1C(=O)N2C(C(=O)O)=C(SCSc3ncccn3)CSC12)c1csc(N)n1` (stereo not shown) [compound 1, 7-[(Z)-2-(2-amino-thiazol-4-yl)-2-methoxyimino-acetylamino]-8-oxo-3-(pyrimidin-2-ylsulfanylmethylsulfanyl)-5-thia-1-aza-bicyclo[4,2,0]oct-2-ene-2-carboxylic acid] are 0.5 µg/mL (≈ 0.927 µM), 0.5 µg/mL (≈ 0.927 µM), 0.13 µg/mL (≈ 0.241 µM), 0.063 µg/mL (≈ 0.117 µM) and 0.008 µg/mL (≈ 0.0148 µM).
Taken in the same sequence, the figures for `CO/N=C(\C(=O)NC1C(=O)N2C(C(=O)O)=C(SCSc3nc(N)cc(N)n3)CSC12)c1csc(N)n1` (stereo not shown) [compound 3, 7-[(Z)-2-(2-amino-thiazol-4-yl)-2-methoxyimino-acetylamino]-3-(4,6-diamino-pyrimidin-2-ylsulfanylmethylsulfanyl)-8-oxo-5-thia-1-aza-bicyclo[4,2,0]oct-2-ene-2-carboxylic acid] were 0.25 µg/mL (≈ 0.439 µM), 0.5 µg/mL (≈ 0.878 µM), 0.063 µg/mL (≈ 0.111 µM), 0.016 µg/mL (≈ 0.0281 µM) and 0.016 µg/mL (≈ 0.0281 µM).
Taken in the same sequence, the figures for `CO/N=C(\C(=O)NC1C(=O)N2C(C(=O)O)=C(SCSc3cc(N)nc(N)n3)CSC12)c1csc(N)n1` (stereo not shown) [compound 4, 7-[(Z)-2-(2-amino-thiazol-4-yl)-2-methoxyimino-acetylamino]-3-(2,6-diamino-pyrimidin-4-ylsulfanylmethylsulfanyl)-8-oxo-5-thia-1-aza-bicyclo[4,2,0]oct-2-ene-2-carboxylic acid] were 0.13 µg/mL (≈ 0.228 µM), 0.25 µg/mL (≈ 0.439 µM), 0.063 µg/mL (≈ 0.111 µM), 0.016 µg/mL (≈ 0.0281 µM) and 0.008 µg/mL (≈ 0.014 µM).
Regarding `Nc1cc(N)nc(SCSC2=C(C(=O)O)N3C(=O)C(NC(=O)/C(=N\O)c4csc(N)n4)C3SC2)n1` (stereo not shown) [compound 5, 7-[(Z)-2-(2-amino-thiazol-4-yl)-2-hydroxyimino-acetylamino]-3-(4,6-diamino-pyrimidin-2-ylsulfanylmethylsulfanyl)-8-oxo-5-thia-1-aza-bicyclo[4,2,0]oct-2-ene-2-carboxylic acid], the MIC was 1 µg/mL (≈ 1.8 µM) with S. pneumoniae; 0.13 µg/mL (≈ 0.234 µM) against S. aureus; 0.063 µg/mL (≈ 0.113 µM) in the data set on E. coli; 0.031 µg/mL (≈ 0.0558 µM) against P. vulgaris; 0.25 µg/mL (≈ 0.45 µM) in the data set with H. influenzae (20 h).
Taken in the same sequence, the figures for `Nc1cc(SCSC2=C(C(=O)O)N3C(=O)C(NC(=O)/C(=N\O)c4csc(N)n4)C3SC2)nc(N)n1` (stereo not shown) [compound 6, 7-[(Z)-2-(2-amino-thiazol-4-yl)-2-hydroxyimino-acetylamino]-3-(2,6-diamino-pyrimidin-4-ylsulfanylmethylsulfanyl)-8-oxo-5-thia-1-aza-bicyclo[4,2,0]oct-2-ene-2-carboxylic acid] were 0.5 µg/mL (≈ 0.9 µM), 0.13 µg/mL (≈ 0.234 µM), 0.031 µg/mL (≈ 0.0558 µM), 0.031 µg/mL (≈ 0.0558 µM) and 0.5 µg/mL (≈ 0.9 µM).
With `Nc1cc(SCSC2=C(C(=O)O)N3C(=O)C(NC(=O)/C(=N\O)c4nc(N)sc4Cl)C3SC2)nc(N)n1` (stereo not shown) [compound 7, 7-[(Z)-2-(2-amino-5-chloro-thiazol-4-yl)-2-hydroxyimino-acetylamino]-3-(2,6-diamino-pyrimidin-4-ylsulfanylmethylsulfanyl)-8-oxo-5-thia-1-aza-bicyclo[4,2,0]oct-2-ene-2-carboxylic acid], the MIC in the data set on S. pneumoniae stood at 0.25 µg/mL (≈ 0.424 µM); against S. aureus, 0.13 µg/mL (≈ 0.22 µM); with E. coli it was 0.25 µg/mL (≈ 0.424 µM); in the data set with P. vulgaris, 0.25 µg/mL (≈ 0.424 µM); in the data set on H. influenzae (20 h), 0.13 µg/mL (≈ 0.22 µM). Moreover, the AUC in data set [1] (intravenous, Injection) is 107000 ng·h/mL; in data set [1] (Oral administration), 59900 ng·h/mL. Also, the half-life in data set [1] (intravenous, Injection) worked out at 2.32 h; in data set [1] (Oral administration), 2.8 h. Moreover, in data set [1] (Oral administration), the maximum conc. stood at 13.8 µg/mL.
For the molecule `CO/N=C(\C(=O)NC1C(=O)N2C(C(=O)O)=C(SCSc3cc(N)nc(N)n3)CSC12)c1nc(N)sc1Cl` (stereo not shown) [compound 8, 7-[(Z)-2-(2-amino-5-chloro-thiazol-4-yl)-2-methoxyimino-acetylamino]-3-(2,6-diamino-pyrimidin-4-ylsulfanylmethylsulfanyl)-8-oxo-5-thia-1-aza-bicyclo[4,2,0]oct-2-ene-2-carboxylic acid], the MIC worked out at 0.13 µg/mL (≈ 0.215 µM) against S. pneumoniae; 0.25 µg/mL (≈ 0.414 µM) against S. aureus; 0.25 µg/mL (≈ 0.414 µM) with E. coli; 0.25 µg/mL (≈ 0.414 µM) in the data set with P. vulgaris; 0.031 µg/mL (≈ 0.0513 µM) against H. influenzae (20 h).
In data set [1] (Oral administration), `CO/N=C(\C(=O)NC1C(=O)N2C(C(=O)O)=C(SCc3cnc(N)nc3N)CSC12)c1csc(N)n1` (stereo not shown) [compound 19, 7-[(Z)-2-(2-amino-1,3-thiazol-4-yl)-2-methoxyimino-acetylamino]-3-(2,4-diaminopyrimidin-5-ylmethylsulfanyl)-8-oxo-5-t hia-1-aza-bicyclo[4,2,0]oct-2-ene-2-carboxylic acid] showed an exposure (AUC) of 6320 ng·h/mL, a half-life of 1.15 h and a maximum conc. of 3.2 µg/mL.
As for `CO/N=C(\C(=O)NC1C(=O)N2C(C(=O)O)=C(SCc3cc(N)nc(N)n3)CSC12)c1csc(N)n1` (stereo not shown) [compound 20, 7-[(Z)-2-(2-amino-1,3-thiazol-4-yl)-2-methoxyimino-acetylamino]-3-(2,4-diaminopyrimidin-6-ylmethylsulfanyl)-8-oxo-5-t hia-1-aza-bicyclo[4,2,0]oct-2-ene-2-carboxylic acid], the MIC was 2 µg/mL (≈ 3.72 µM) in the data set with S. pneumoniae; 2 µg/mL (≈ 3.72 µM) against S. aureus; 0.031 µg/mL (≈ 0.0577 µM) against E. coli; 0.016 µg/mL (≈ 0.0298 µM) in the data set with P. vulgaris; 0.031 µg/mL (≈ 0.0577 µM) in the data set with H. influenzae (20 h).
